The source made the active and inactive calls.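 Rule for the calls: active = compounds giving half or more protection of infected cells from virus-caused growth loss, again on retest; inactive = the rest.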
Tested on: CEM cells HIV-1 protection, formazan growth assay
Test: NCI AIDS Antiviral Assay
Details: for IC50: measured here: growth of uninfected CEM cells
In short: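 Soluble formazan readout of cell growth; CEM cells ± HIV-1; 5 drug concs. ≥50% protection → retest; ≥50% again = moderately active; reproducible 100% = confirmed active.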

Structure (SMILES) | EC50 [µM] | IC50 [µM] | outcome
COc1ccc2c(c1)CN([C@@H](C)[C@H]1CC[C@H]3[C@@H]4CC[C@H]5C[C@@H](O)CC[C@]5(C)[C@H]4CC[C@]13C)CO2 | > 61.7 | 3.16 | –
COc1cc(C2C(Cl)C(=O)N2NC(=O)c2ccc(N)cc2)ccc1O (stereo not given) | > 200 | 53.7 | –
Cc1ccc2c3c(c(=O)oc2c1)[C@H](C)C[C@@](C)(CO)O3 | > 200 | 178 | –
[N-]=[N+]=NC12CC3CC4C5CC(CC41)CC2[C@H]5C3 | > 81.3 | > 81.3 | –
O=C(NNC(=S)Nc1ccc(Cl)cc1)C12CC3CC(CC(C3)C1)C2 | > 200 | 6.61 | –
CSc1c(C#N)c(O)n(-c2ccc(C)cc2)c(=O)c1C#N | > 115 | 102 | –
CCn1c(SCC(=O)N/N=C2\SCC(=O)N2c2ccc(C)cc2)nc2ccccc2c1=O | > 200 | 66.1 | –
CCOC(=O)CCC(NC(=O)C(N)c1ccc([N+](=O)[O-])cc1)C(=O)NC(CCC(=O)OCC)C(=O)OCC (stereo not given) | > 200 | > 200 | –
O=C1C2=C(SCCS2)C(=O)c2c(Sc3ccc(Cl)cc3)c(Sc3ccc(Cl)cc3)c(Sc3ccc(Cl)cc3)c(Sc3ccc(Cl)cc3)c21 | > 151 | > 151 | –
CC1NCc2c1[nH]cnc2=S (stereo not given) | > 257 | > 257 | –
Cc1c(C(=O)CC(=O)C(=O)Nc2ccc(Cl)cc2)[n+](=O)c2ccccc2n1[O-] | > 12.6 | > 12.6 | –
CC(C)[C@@]12O[C@@H]1CC13OC1[C@@H](O)CC[C@@]32O (stereo not given in full) | > 200 | > 200 | –
O=c1[nH]c2cc(C(F)(F)F)ccc2nc1CBr | > 200 | 6.61 | –
COc1cccc2c1C(=O)c1c(O)c3c(c(O)c1C2=O)C[C@@](O)(/C(C)=N/NC(=O)c1ccccc1)C[C@@H]3OC1CC(N)C(O)C(C)O1 (stereo not given in full) | > 50.1 | 0.0158 | –
CC1Oc2c(c(=O)oc3ccccc23)[C@@]1(C)CC1C[C@H](C)C(=O)O1 (stereo not given in full) | > 200 | 24.5 | –
C[N+](C)(C)CC1CCCC(C[N+](C)(C)C)C1=NO (stereo not given) | – | – | inactive
C=CCN(N=O)C(=O)ON1C(=O)CCC1=O | > 1100 | 275 | –
c1cc2cc(c1)CNCCNCCNCc1cccc(c1)CNCCNCCNC2 | > 138 | 60.3 | –
COC1=NS(=O)(=O)C2(O1)c1ccccc1-c1ccccc12 | > 117 | 89.1 | –
C=CC1(CC/C(=C\[N+](=O)[O-])c2ccc(OC)c(OC)c2)OCC(C)(C)CO1 | > 200 | 17.4 | –
CC(C)=CC[C@]12CCN[C@H]1N(S(=O)(=O)c1ccccc1)c1ccccc12 | > 200 | 30.9 | –
CCCCCCCCCCCCCCCCCC(=O)OCC1OC(OC)C(NC(=O)N(CCCl)N=O)C(O)C1O (stereo not given) | > 8.71 | > 8.71 | –
CCOC(=O)N/N=C(/N)Cc1ccccc1 | > 200 | > 200 | –

Structure (SMILES) | EC50 [µM] | IC50 [µM] | outcome
C=C(C)C1CC=C(C)[C@](O)(C2(O)C[C@H](C(=C)C)CC=C2C)C1 (stereo not given in full) | – | – | inactive
COc1ccc2c(=O)c(-c3ccc(OC)c(OC)c3)c(C)oc2c1 | > 200 | > 200 | –
OCc1cc2c(cn1)[nH]c1ccc(NCc3ccccc3)cc12 | – | – | inactive
Cc1cc(C2C(=O)c3ccccc3C2=O)cc(C)c1O | – | – | inactive
Cc1ccccc1C1=[N+]([O-])c2ccccc2C1=O | – | – | inactive
COc1cc2c(c(OC)c1OC)C(=O)[C@H]1OC(=O)N[C@@H]21 | > 200 | > 200 | –
CC1CCCC(C(O)CC2CC(=O)N(c3ccccc3)C(=O)C2)C1=O (stereo not given) | > 200 | > 200 | –
CCOC(=O)c1cc2c(OCc3ccccc3)c(OC)cc3c2c(n1)N(c1ccc(OC)cc1)C(C)C3 (stereo not given) | > 10.5 | > 10.5 | –
COC(=O)C(C)(Cc1ccc2c(c1)nnn2C(C)=O)NC(C)=O (stereo not given) | > 200 | > 200 | –
O=C1C(Cl)C(c2ccccc2O)N1n1cnc2ccccc2c1=O (stereo not given) | > 14.5 | > 14.5 | –
CCOC(=O)c1c(N)ssc1=S | 87.1 | 158 | –
CCOc1ccc(N=Nc2ccc3oc(=O)c(/C(C)=N/NC(=O)CC(=O)Nc4cccc(OC)c4)cc3c2)cc1 | > 13.2 | > 13.2 | –
CN(C)CCCNC(=O)c1cc(NC(=O)c2cc(NC(=O)c3cc(NC(=O)CCCn4ccc(CO)c4CO)cn3C)cn2C)cn1C | > 20 | 0.38 | –
c1ccc2c(c1)nn1c3ccc4nonc4c3[n-][n+]21 | – | – | inactive
COC(=O)c1cc2nc(NC(C)=O)sc2n1C | > 200 | > 200 | –
Cc1nc(N)nc(N)c1CCCCc1ccc(N)cc1 | – | – | inactive
CC(C)(C)c1cc(Cc2ccc([N+](C)(C)C)cc2)c(O)c(C(C)(C)C)c1 | – | – | inactive
C=C(C)[C@]12CC(C)C34OC(/C=C\C=C\CCCCCCCCC)(O[C@@H]1[C@@H]3[C@@H]1O[C@]1(CO)[C@@H](O)[C@]1(O)C(=O)C(C)=C[C@@H]41)O2 (stereo not given in full) | > 0.2 | 0.00389 | –
COC12c3ccccc3-c3ccccc3C1[C@@H](C(=O)O)[C@H]2C(=O)O (stereo not given in full) | > 776 | > 776 | –
CC(=O)Oc1ccc2c(C)cc(=O)oc2c1OC(C)=O | > 200 | 69.2 | –
O=C(NC(Nc1ccc(F)cc1)(C(F)(F)F)C(F)(F)F)C(C(F)(F)F)C(F)(F)F | – | – | inactive
CN1c2ccccc2[C@@]23CCN4CC=CC5(CCC12CC5)C43 (stereo not given in full) | > 178 | 7.41 | –
Cl/C(N=Nc1ccccc1)=N/Nc1ccccc1 | – | – | inactive

Structure (SMILES) | EC50 [µM] | IC50 [µM] | outcome
O=C1NC23CC=CCC12CCCCCC3 (stereo not given) | > 389 | – | –
COc1ccc(-c2noc(=O)c3ccccc23)cc1 | – | – | inactive
NNC(=O)CC(=O)Nc1ccccc1Cl | > 200 | > 200 | –
Cc1cc(S(=O)(=O)Nc2n[nH]c(Nc3ccccc3)n2)c(SCC(=O)O)cc1Cl | > 200 | > 200 | –
COc1ccc(C(=O)C(CC2C(=O)CC(C)(C)C(C(=O)C(=O)Nc3c(C)cccc3C)C2=O)c2ccc(OC)cc2)cc1 (stereo not given) | > 427 | 372 | –
O/N=C1/CC2(N3CCOCC3)C3CC/C(=N\O)C2CC1(Cc1ccccc1)C3 (stereo not given) | > 200 | 123 | –
Cn1ccc(C(=O)NCCOCCNC(=O)c2ccn(C)c(=O)c2O)c(O)c1=O | > 50.1 | > 50.1 | –
CCn1c(=O)c(N=O)c(N)n(CC(C)O)c1=O (stereo not given) | > 200 | > 200 | –
N#CCC(=O)N1CCCOCCC1 | > 1380 | > 1380 | –
COc1ccc2[nH]c3c(C)c4ccnc(NCCCN(C)CCCNc5ccc6ncn7c8ccccc8c(=O)c5c67)c4c(C)c3c2c1 | > 0.0251 | 0.00794 | –
S=C1OC2C3C4CC5C3C(O1)C1C5C4C21 (stereo not given) | – | – | inactive
NC(=O)c1nc(C2OC(CO)C(O)C2O)cs1 (stereo not given) | > 200 | > 200 | –
CCOC(=O)/C(C#N)=C/c1coc2cc(C)cc(C)c2c1=O | > 200 | 11 | –
CCCCCCCC(=O)OCC(COC(=O)C(C)(C)C)OC(=O)Cc1ccccc1 (stereo not given) | > 251 | > 251 | –
CC1=Nc2sc3c(c2C2=NCCN12)CCCC3 | > 200 | 34.7 | –
C=C1CC(CN2CCC(=O)NC2=O)(c2ccccc2)OC1=O (stereo not given) | > 200 | 1.48 | –
COc1ccc(NC(=O)C/C(C)=N\N=C(N)N)c([N+](=O)[O-])c1 | > 115 | > 115 | –
CCCc1cc(=O)oc2c3c(c4c(c12)OC(C)(C)C(O)C4=O)O[C@@H](C)[C@H](C)[C@@H]3O (stereo not given in full) | > 200 | 85.1 | –
CN(C)c1nc(=NCc2ccncc2)ss1 | > 200 | 10.7 | –
Clc1ccccc1C(n1cc(Br)cn1)n1cc(Br)cn1 | – | – | inactive
O=P(c1ccccc1)(c1ccccc1)P(=O)(c1ccccc1)c1ccccc1 | > 200 | > 200 | –
Oc1ccc(C2=CSC3=NCCN23)cc1 | – | – | inactive
CC1=Nc2c(C#N)ncn2N=C(C)C1 | > 200 | > 200 | –

Structure (SMILES) | EC50 [µM] | IC50 [µM] | outcome
CC(C)CCC1(O)O[C@H]2C[C@H]3[C@@H]4CCC5=CC(=O)C=C[C@]5(C)[C@H]4CC[C@]3(C)[C@H]2[C@@H]1C (stereo not given in full) | – | – | inactive
O=NC1C2C=CC(C2)C1Cl (stereo not given) | > 200 | > 200 | –
FC(F)(F)c1nc(Cl)nc2nc[nH]c12 | > 200 | 97.7 | –
CC1(C)CNC[C@](C)(OCCCO[C@@]2(C)CNCC(C)(C)NC2=O)C(=O)N1 | > 200 | > 200 | –
CCCCCCCCOP(=O)(O)OP(=O)(O)OCC1OC(n2ccc(N)nc2=O)C(O)C1O (stereo not given) | > 200 | > 200 | –
O=c1oc2ccccc2c(O)c1C(c1ccc(-c2ccccc2)cc1)c1c(O)c2ccccc2oc1=O | > 200 | 35.5 | –
Oc1ccc2ccccc2c1Br | > 200 | 162 | –
COc1ccc(C(=O)/C=C/c2ccc(OCCCCCCCCCCOc3ccc(/C=C/C(=O)c4ccc(OC)cc4)cc3)cc2)cc1 | > 200 | > 200 | –
O=C(O)C1(Cc2ccccc2)Cc2cc3c(cc2C1)CCC3 | > 200 | 93.3 | –
CC(C)=CCCC1(C)C=Cc2c(ccc3c(C)noc23)O1 (stereo not given) | > 18.2 | > 18.2 | –
O=C1C(Cl)N(c2ccccc2Cl)C1c1c[nH]c2ccccc12 (stereo not given) | > 398 | > 200 | –
N=c1c2ccccc2nc2oc3ccc(Cl)cc3n12 | > 200 | 102 | –
CCC12C=CCN(CCc3c([nH]c4ccccc34)/C=C\1)C2 (stereo not given) | > 295 | > 295 | –
COc1ccc2c(c1)c1c(n2CCN2CCOCC2)-c2cccc(OC)c2CC1 | – | – | inactive
C#Cc1cccc(NC(=O)/C=C\C(=O)O)c1 | > 832 | 537 | –
C/C1=C\CC[C@@]2(C)O[C@@H]2[C@H]2OC(=O)C(C)C2C[C@H]1O (stereo not given in full) | > 200 | > 200 | –
Oc1ccc2c(c1)CCc1c-2n(CCN2CCOCC2)c2ccc(O)cc12 | > 200 | 14.8 | –
CCOC(=O)Cc1nc2sc(C)c(-c3ccccc3)c2c(=O)[nH]1 | > 110 | > 110 | –
NC(=O)CCC(Nc1c2ccccc2nc2ccccc12)C(=O)O (stereo not given) | – | – | inactive
Cc1ccc(S(=O)(=O)N2CCc3cc(O)c([N+](=O)[O-])cc32)cc1 | > 200 | > 200 | –
